Data as given in US20250189533A1, “BEAD-BASED ASSAY TO SCREEN FOR INHIBITOR PROTEIN-GLYCAN INTERACTIONS IN NEURODEGENERATION” (Rensselaer Polytechnic Institute, priority 2023, published 2025).

Columns and labels:
[1] = target: T1, His-tagged tau / biotinylated heparin interaction (Homo sapiens, UniProt P10636); assay: Bead-based ALPHA assay screening for inhibitors of tau-heparin interaction; assay type: binding
T1 construct: recombinant full-length tau (2N4R, as 1-441); made in house; host or cells: E. coli BL21-DE3
Source text: In some embodiments, the detecting portion 161 is configured to measure a fluorescent emission 164 when the at least one donor bead 110 and the at least one acceptor bead 120 are brought in proximity of one another. In some embodiments, the emitting portion 163 configured to emit a beam of light 162 at a specific wavelength onto the at least one donor bead 110. In some embodiments, the at least one donor bead 110 becomes excited at the specific wavelength, which results in a light emission by the at least one acceptor bead 120. […] In some embodiments, the ability and effectiveness of the screening molecule 150 to inhibit protein-glycan interactions is determined based on the strength of the emission 164, where inhibitors decrease the strength of the emission 164. […] In some embodiments, the user interface outputs information related to the emission 164 detected by the detecting portion 161.
At 214, the results are determined, meaning that whether or not the screening compound disrupts interactions at the protein-glycan interface is determined. In some embodiments, in the case of the screening molecule 150 being determined to disrupt interactions at the protein-glycan interface, the relative strength of the disruption may also be determined. […]

[2] = test system: tau uptake in H4 neuroglioma cells; assay: Cell uptake assay utilizing H4 neuroglioma cells; assay type: cell-based
Source text: (§1) Referring to FIG. 3B, in some embodiments, the screening compound 150 comprises 9-hydroxy-2-(2-piperidinylethyl) ellipticinium acetate or 6H-Pyrido [4, 9-hydroxy-5,11-dimethyl-2-[2-(1-piperidinyl)ethyl]-, acetate (A9) 300. […] A9 300 may comprise a chemical formula of C24H28N3O·C2H3O2 and a molecular weight of 434.0 g/mol. Additional analysis of A9 300 was done by performing a cell uptake assay utilizing H4 neuroglioma cells. […] In some embodiments, A9 300 is effective to disrupt tau-heparin interaction when present in a higher concentration than the concentration of tau. In some embodiments, A9 300 is effective when present in about a 100-fold molar excess relative to the tau-heparin complex.

[3] = target: T2, tau-HS interaction (heparin) (Homo sapiens, UniProt P10636); assay: NMR probing of the tau-A9 interface; assay type: binding
T2 construct: recombinant full-length tau (2N4R, as 1-441); made in house; host or cells: E. coli BL21-DE3

[4] = target: T3, tau (Homo sapiens, UniProt P10636); assay: Heparin-induced tau aggregation; assay type: biochemical
T3 construct: recombinant full-length tau (2N4R, as 1-441); made in house; host or cells: E. coli BL21-DE3
Source text: as §1

T2 sequence (P10636 1-441 isoform P10636-8): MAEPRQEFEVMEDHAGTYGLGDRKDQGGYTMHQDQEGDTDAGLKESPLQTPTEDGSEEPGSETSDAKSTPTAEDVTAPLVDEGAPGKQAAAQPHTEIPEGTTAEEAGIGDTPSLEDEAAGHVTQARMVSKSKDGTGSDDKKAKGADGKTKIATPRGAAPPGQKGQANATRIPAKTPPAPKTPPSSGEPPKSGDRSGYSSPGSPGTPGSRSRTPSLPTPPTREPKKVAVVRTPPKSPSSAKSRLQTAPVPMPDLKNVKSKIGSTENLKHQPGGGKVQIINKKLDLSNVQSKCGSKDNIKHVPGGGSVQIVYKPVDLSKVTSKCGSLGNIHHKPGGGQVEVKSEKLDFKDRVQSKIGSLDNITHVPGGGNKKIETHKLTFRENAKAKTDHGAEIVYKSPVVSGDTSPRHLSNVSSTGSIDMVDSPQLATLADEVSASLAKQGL
T1 sequence (P10636 1-441 isoform P10636-8): as above
T3 sequence (P10636 1-441 isoform P10636-8): as above

detected fluorescent signal in screen of NCI diversity Set VI ([1]; 0.1 μM His-tau, 0.1 μM biotinylated heparin, 1 h room temperature, excitation 680 nm, emission 620 nm, lower signal = stronger inhibition): lowest detected fluorescent signal | protein-glycan inhibition, dose-dependent follow-up, ranking among the six hits ([1]; varying compound concentrations): greatest protein-glycan inhibition
Structure (SMILES): CC(=O)[O-].Cc1c2cc[n+](CCN3CCCCC3)cc2c(C)c2c1[nH]c1ccc(O)cc12 [A9, 9-hydroxy-2-(2-piperidinylethyl) ellipticinium acetate]
inhibition of tau uptake [2]: inhibited tau uptake in a dose-dependent manner | mechanism of disruption of tau-HS interaction ([3]; NMR): disrupt the tau-HS interaction by occupying the glycan | region of compound that binds heparin ([3]; further analysis): aromatic region binds to heparin instead of its aliphatic carbons | inhibition of heparin-induced tau aggregation [4]: inhibit heparin-induced tau aggregation in a dose-dependent manner
